In PMC7579906, “Discovery of a dual inhibitor of NQO1 and GSTP1 for treating glioblastoma” (Journal of Hematology & Oncology, 2020):

Columns and labels:
[1] = target: T1, GSTP1 R100A (Homo sapiens, UniProt P09211, I105V/R101A); test: GSTP1 kinetic assay, R100A mutant; assay type: biochemical; conditions: mean ± SEM (n=3)
T1 construct: hexahistidine tag followed by a thrombin site (N); made in house; host or cells: Escherichia coli BL21 (DE3)
Procedure: (§1) The enzymatic activity of GSTP1 and its mutations was measured through the increased absorbance at 340 nm, which derived from the conjugation of reduced glutathione (GSH) and 1-chloro-2,4-dinitrobenzene (CDNB). The conjugation was initiated by adding CDNB to the mixture of GSH and GSTP1 or its mutants, and OD was immediately and continually measured for 20 min at 25 °C. The final assay mixture included 1 mM CDNB, 1 mM GSH in the buffer of 100 mM potassium phosphate pH 6.5, 1 mM EDTA. The inhibitory potency of MNPC versus GSTP1 or mutants was determined by calculating the residual activity after incubated with MNPC for 30 min at room temperature. Parallel control was run to monitor spontaneous conjugation of GSH and CDNB in the absence of the enzyme, and absorbance change of the control was used for the correction of an enzymatic reaction. The inhibition rate in triplicate was calculated by GraphPad Prism software (GraphPad, San Diego, CA) to give IC50 using nonlinear regression analysis.

[2] = system: EGFR wild-type primary GBM cultures (HK408, HK157 – no EGFRvIII); test: Limiting dilution sphere formation, EGFR wild-type cultures; assay type: cell-based
Procedure: For sphere formation experiments, cell numbers were calculated and cells were plated into 96-well plates at a density of 100, 50, 25, and 12 cells per well (24 wells for each density). Cells were kept in the incubator for 2 weeks before sphere formation was assessed and images were taken. Spheres larger than 10 cells in diameter were considered for analysis. The number of wells forming spheres was used as input to the Walter and Eliza Hall Institute Bioinformatics Division ELDA analyzer (https://bioinf.wehi.edu.au/software/elda/) in order to obtain stem cell frequencies.

[3] = target: T2, GSTP1 F8A (Homo sapiens, UniProt P09211, F9A/I105V); test: Microscale thermophoresis (MST), F8A; conditions: n.b. = no clear binding detected
T2 construct: hexahistidine tag followed by a thrombin site (N); made in house; host or cells: Escherichia coli BL21 (DE3)
T2 sequence (P09211 whole entry F9A/I105V): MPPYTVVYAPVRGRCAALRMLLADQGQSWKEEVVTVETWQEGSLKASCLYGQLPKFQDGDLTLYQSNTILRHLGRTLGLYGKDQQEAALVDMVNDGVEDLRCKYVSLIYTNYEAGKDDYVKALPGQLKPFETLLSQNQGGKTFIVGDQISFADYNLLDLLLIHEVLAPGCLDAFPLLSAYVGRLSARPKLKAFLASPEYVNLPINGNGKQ
Procedure: (§2) Since Tris buffer is incompatible with MST labeling, GSTP1 and its mutants were performed an initial buffer exchange to 20 mM HEPES pH 7.6, 200 mM NaCl before labeling. Then, the proteins were fluorescently labeled using Monolith Protein Labeling Kit RED-NHS 2nd generation dye (NanoTemper Technology, Munich, Germany) according to the protocol. MNPC was prepared with a series of concentrations (varying from 2 mM to 11 nM) at a dilution ratio of 1: 2. Six microliters of the fluorescence-labeled GSTP1 or mutations was mixed with 6 μl of variable concentration of MNPC and incubated for 10 min at room temperature. The mixtures were loaded into standard glass capillaries and analyzed on Monolith NT.115 at 25 °C, with 40% LED power and 100% Laser power in triplicate. Data were analyzed by NTAnalysis software to calculate the Kd values.

[4] = target: T3, GSTP1 F8A/Y108A (Homo sapiens, UniProt P09211, F9A/I105V/Y109A); test: GSTP1 kinetic assay, F8A/Y108A mutant; assay type: biochemical; conditions: mean ± SEM (n=3)
T3 construct: hexahistidine tag followed by a thrombin site (N); made in house; host or cells: Escherichia coli BL21 (DE3)
T3 sequence (P09211 whole entry F9A/I105V/Y109A): as the sequence (P09211 whole entry F9A/I105V) above, with Y109A counted along it
Procedure: as §1

[5] = target: T4, AEP (asparagine endopeptidase) (Homo sapiens, UniProt Q99538); test: AEP activity assay in cell lysates; assay type: cell-based; conditions: U87MG/EGFRvIII lysates, 0-5 μM
T4 construct: endogenous in cells; host or cells: U87MG/EGFRvIII cells (lysate)
T4 sequence (Q99538 18-433): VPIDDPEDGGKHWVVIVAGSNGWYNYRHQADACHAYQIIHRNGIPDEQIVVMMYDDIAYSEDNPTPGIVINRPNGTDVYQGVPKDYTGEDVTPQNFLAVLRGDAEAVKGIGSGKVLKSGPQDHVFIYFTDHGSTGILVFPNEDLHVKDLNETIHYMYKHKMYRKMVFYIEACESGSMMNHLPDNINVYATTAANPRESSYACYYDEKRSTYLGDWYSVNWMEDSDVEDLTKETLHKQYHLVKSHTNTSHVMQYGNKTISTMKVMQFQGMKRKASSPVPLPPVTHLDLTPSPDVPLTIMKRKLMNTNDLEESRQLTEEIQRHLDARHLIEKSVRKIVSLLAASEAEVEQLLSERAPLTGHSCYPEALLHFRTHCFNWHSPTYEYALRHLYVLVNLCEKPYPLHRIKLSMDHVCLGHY
Procedure: After different treatments, cell lysates were incubated in 200 μl assay buffer (20 mM citric acid, 60 mM Na2HPO4, 1 mM EDTA, 0.1% CHAPS and 1 mM DTT, pH 6.0) containing 20 μM AEP substrate Z-Ala-Ala-Asn-AMC (Bachem, USA). AMC released by substrate cleavage was quantified by measuring every 10 min at 460 nm in a fluorescence plate reader at 37 °C in kinetic mode for the total time of 1 h.

[6] = target: T3, GSTP1 F8A/Y108A; test: Microscale thermophoresis (MST), F8A/Y108A; conditions: n.b. = no clear binding detected
Procedure: as §2

[7] = target: T5, GSTP1 Y108A (Homo sapiens, UniProt P09211, I105V/Y109A); test: GSTP1 kinetic assay, Y108A mutant; assay type: biochemical; conditions: mean ± SEM (n=3)
T5 construct: hexahistidine tag followed by a thrombin site (N); made in house; host or cells: Escherichia coli BL21 (DE3)
T5 sequence (P09211 whole entry I105V/Y109A): as the sequence (P09211 whole entry F9A/I105V) above, with A9F, Y109A counted along it
Procedure: as §1

[8] = target: T2, GSTP1 F8A; test: GSTP1 kinetic assay, F8A mutant; assay type: biochemical; conditions: mean ± SEM (n=3)
Procedure: as §1

T1 sequence (P09211 whole entry R101A/I105V): as the sequence (P09211 whole entry F9A/I105V) above, with A9F, R101A counted along it

Question: For Cc1onc(-c2ccccc2)c1C(=O)Nc1ncc([N+](=O)[O-])s1 [MNPC, 5-methyl-N-(5-nitro-thiazol-2-yl)-3-phenylisoxazole-4-carboxamide], which IC50 [1] is on record?
Answer: 2.37 ± 0.38 µM

Question: What about the “Effect on sphere formation” value [2] of the same compound?
Answer: little or no effect

Question: What about the “Kd (μM), F8A” value [3] of the same compound?
Answer: n.b. and no detectable binding

Question: What about the IC50 [4] of the same compound?
Answer: 4.01 ± 0.6 µM

Question: And the “Inhibition of AEP” value [5]?
Answer: nor inhibited

Question: What about the “Kd (μM), F8A/Y108A” value [6] of the same compound?
Answer: n.b. and no detectable binding

Question: And the IC50 [7]?
Answer: 25.7 ± 1.41 µM

Question: What about the IC50 [8] of the same compound?
Answer: 2.42 ± 0.36 µM
